Measured values as given in the supplement of paper PMC10307832.

Assays:
Assay in all cases: relative viability (nuclei count vs DMSO), 5 days (fraction); higher = more cells survive
[1] = test system: NCI-H1793
How it was run: (§1)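 One day after seeding in 1536-well plates, lung cancer cell lines were dosed by pin tool. Dosing was either single-drug or a fixed anchor-drug dose plus five library-drug doses (not always all listed) in √10 steps. After 5 days, nuclei were stained in one fix-and-stain step and counted on 4× images, and relative viability is the nuclei count of treated wells over that of vehicle wells, given as the median of duplicate plates.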

[2] = test system: NCI-H23
How it was run: as §1

[3] = test system: HARA
How it was run: as §1

[4] = test system: LC-2-ad
How it was run: as §1

[5] = test system: NCI-H2023
How it was run: as §1

[6] = test system: HCC-78
How it was run: as §1

[7] = test system: NCI-H2009
How it was run: as §1

[8] = test system: NCI-H2228
How it was run: as §1

[9] = test system: COR-L23
How it was run: as §1

[10] = test system: HCC-15
How it was run: as §1

[11] = test system: NCI-H1944
How it was run: as §1

[12] = test system: ChaGo-K-1
How it was run: as §1

[13] = test system: A-427
How it was run: as §1

[14] = test system: SK-LU-1
How it was run: as §1

[15] = test system: HCC-366
How it was run: as §1

[16] = test system: NCI-H838
How it was run: as §1

[17] = test system: NCI-H2405
How it was run: as §1

[18] = test system: ABC-1
How it was run: as §1

[19] = test system: EMC-BAC-2
How it was run: as §1

[20] = test system: LK-2
How it was run: as §1

[21] = test system: NCI-H1650
How it was run: as §1

[22] = test system: NCI-H1993
How it was run: as §1

[23] = test system: UMC-11
How it was run: as §1

[24] = test system: NCI-H1734
How it was run: as §1

SMILES: COc1cc(N2CCC(C(N)=O)CC2)ccc1Nc1nc(N)c(Cl)c(Nc2ccccc2S(=O)(=O)C(C)C)n1 [HG-5-88-01] + O=C(c1cc(Cc2n[nH]c(=O)c3ccccc23)ccc1F)N1CCN(C(=O)C2CC2)CC1 [Olaparib] (partner 8 µM)
- relative viability ([1]; first compound 0.04 µM): 0.878
- relative viability ([1]; first compound 0.1265 µM): 0.84
- relative viability ([1]; first compound 0.4 µM): 0.848
- relative viability ([1]; first compound 1.265 µM): 0.651
- relative viability ([1]; first compound 4 µM): 0.847
- relative viability ([2]; first compound 0.04 µM): 0.321
- relative viability ([2]; first compound 0.1265 µM): 0.279
- relative viability ([2]; first compound 0.4 µM): 0.303
- relative viability ([2]; first compound 1.265 µM): 0.334
- relative viability ([2]; first compound 4 µM): 0.194
- relative viability ([3]; first compound 0.04 µM): 1.07
- relative viability ([3]; first compound 0.1265 µM): 1.02
- relative viability ([3]; first compound 0.4 µM): 0.456
- relative viability ([3]; first compound 1.265 µM): 0.526
- relative viability ([3]; first compound 4 µM): 0.862
- relative viability ([4]; first compound 0.04 µM): 0.691
- relative viability ([4]; first compound 0.1265 µM): 0.692
- relative viability ([4]; first compound 0.4 µM): 0.725
- relative viability ([4]; first compound 1.265 µM): 0.692
- relative viability ([4]; first compound 4 µM): 0.721
- relative viability ([5]; first compound 0.04 µM): 0.515
- relative viability ([5]; first compound 0.1265 µM): 0.519
- relative viability ([5]; first compound 0.4 µM): 0.445
- relative viability ([5]; first compound 1.265 µM): 0.441
- relative viability ([5]; first compound 4 µM): 0.277
- relative viability ([6]; first compound 0.04 µM): 0.868
- relative viability ([6]; first compound 0.1265 µM): 0.664
- relative viability ([6]; first compound 0.4 µM): 0.511
- relative viability ([6]; first compound 1.265 µM): 0.302
- relative viability ([6]; first compound 4 µM): 0.422
- relative viability ([7]; first compound 0.04 µM): 0.684
- relative viability ([7]; first compound 0.1265 µM): 0.651
- relative viability ([7]; first compound 0.4 µM): 0.687
- relative viability ([7]; first compound 1.265 µM): 0.685
- relative viability ([7]; first compound 4 µM): 0.684
- relative viability ([8]; first compound 0.04 µM): 0.538
- relative viability ([8]; first compound 0.1265 µM): 0.36
- relative viability ([8]; first compound 0.4 µM): 0.424
- relative viability ([8]; first compound 1.265 µM): 0.227
- relative viability ([8]; first compound 4 µM): 0.253
- relative viability ([9]; first compound 0.04 µM): 0.336
- relative viability ([9]; first compound 0.1265 µM): 0.386
- relative viability ([9]; first compound 0.4 µM): 0.28
- relative viability ([9]; first compound 1.265 µM): 0.319
- relative viability ([9]; first compound 4 µM): 0.246
- relative viability ([10]; first compound 0.04 µM): 0.738
- relative viability ([10]; first compound 0.1265 µM): 0.616
- relative viability ([10]; first compound 0.4 µM): 0.883
- relative viability ([10]; first compound 1.265 µM): 0.707
- relative viability ([10]; first compound 4 µM): 0.7
- relative viability ([11]; first compound 0.04 µM): 0.414
- relative viability ([11]; first compound 0.1265 µM): 0.374
- relative viability ([11]; first compound 0.4 µM): 0.479
- relative viability ([11]; first compound 1.265 µM): 0.466
- relative viability ([11]; first compound 4 µM): 0.466
- relative viability ([12]; first compound 0.04 µM): 0.421
- relative viability ([12]; first compound 0.1265 µM): 0.418
- relative viability ([12]; first compound 0.4 µM): 0.455
- relative viability ([12]; first compound 1.265 µM): 0.421
- relative viability ([12]; first compound 4 µM): 0.393
- relative viability ([13]; first compound 0.04 µM): 0.652
- relative viability ([13]; first compound 0.1265 µM): 0.807
- relative viability ([13]; first compound 0.4 µM): 0.762
- relative viability ([13]; first compound 1.265 µM): 0.746
- relative viability ([13]; first compound 4 µM): 0.513
- relative viability ([14]; first compound 0.04 µM): 0.447
- relative viability ([14]; first compound 0.1265 µM): 0.442
- relative viability ([14]; first compound 0.4 µM): 0.444
- relative viability ([14]; first compound 1.265 µM): 0.417
- relative viability ([14]; first compound 4 µM): 0.295
- relative viability ([15]; first compound 0.04 µM): 0.385
- relative viability ([15]; first compound 0.1265 µM): 0.391
- relative viability ([15]; first compound 0.4 µM): 0.352
- relative viability ([15]; first compound 1.265 µM): 0.39
- relative viability ([15]; first compound 4 µM): 0.38
- relative viability ([16]; first compound 0.04 µM): 0.793
- relative viability ([16]; first compound 0.1265 µM): 0.766
- relative viability ([16]; first compound 0.4 µM): 0.67
- relative viability ([16]; first compound 1.265 µM): 0.557
- relative viability ([16]; first compound 4 µM): 0.452
- relative viability ([17]; first compound 0.04 µM): 0.885
- relative viability ([17]; first compound 0.1265 µM): 0.904
- relative viability ([17]; first compound 0.4 µM): 0.807
- relative viability ([17]; first compound 1.265 µM): 0.524
- relative viability ([17]; first compound 4 µM): 0.75
- relative viability ([18]; first compound 0.04 µM): 1
- relative viability ([18]; first compound 0.1265 µM): 0.494
- relative viability ([18]; first compound 0.4 µM): 0.688
- relative viability ([18]; first compound 1.265 µM): 0.686
- relative viability ([18]; first compound 4 µM): 0.589
- relative viability ([19]; first compound 0.04 µM): 0.482
- relative viability ([19]; first compound 0.1265 µM): 0.526
- relative viability ([19]; first compound 0.4 µM): 0.615
- relative viability ([19]; first compound 1.265 µM): 0.459
- relative viability ([19]; first compound 4 µM): 0.46
- relative viability ([20]; first compound 0.04 µM): 0.941
- relative viability ([20]; first compound 0.1265 µM): 0.645
- relative viability ([20]; first compound 0.4 µM): 0.718
- relative viability ([20]; first compound 4 µM): 0.501
- relative viability ([21]; first compound 0.04 µM): 0.729
- relative viability ([21]; first compound 0.1265 µM): 0.753
- relative viability ([21]; first compound 0.4 µM): 0.969
- relative viability ([21]; first compound 1.265 µM): 0.65
- relative viability ([21]; first compound 4 µM): 0.837
- relative viability ([22]; first compound 0.04 µM): 1.12
- relative viability ([22]; first compound 0.1265 µM): 1.03
- relative viability ([22]; first compound 0.4 µM): 0.949
- relative viability ([22]; first compound 4 µM): 0.842
- relative viability ([23]; first compound 0.04 µM): 0.35
- relative viability ([23]; first compound 0.1265 µM): 0.399
- relative viability ([23]; first compound 0.4 µM): 0.45
- relative viability ([23]; first compound 1.265 µM): 0.428
- relative viability ([23]; first compound 4 µM): 0.274
- relative viability ([24]; first compound 0.04 µM): 0.681
- relative viability ([24]; first compound 0.1265 µM): 0.583
- relative viability ([24]; first compound 0.4 µM): 0.642
- relative viability ([24]; first compound 1.265 µM): 0.54
- relative viability ([24]; first compound 4 µM): 0.558
